{"source": "patent US5883084A", "about": "“Treatment of respiratory diseases utilizing α-tocopheryl-phosphocholine” (Clarion Pharmaceuticals Inc., priority 1998, dated 1999)", "key": {"[1]": {"system": "RAW 264.7 murine monocyte/macrophage cell line (PMA-stimulated respiratory burst)", "experiment": "In vitro anti-inflammatory activity by inhibition of macrophage activation (luminol chemiluminescence, PMA-stimulated)", "format": "cell-based, mouse", "settings": "for inhibition at 1000 µM / inhibition at 3000 µM / inhibition at 10000 µM / inhibition at 30000 µM: Mus musculus, RAW264.7, RAW 264.7, PMA 100 ng, luminol; for inhibition at 1000 µM: 1 mM; for inhibition at 3000 µM: 3 mM; for inhibition at 10000 µM: 10 mM; for inhibition at 30000 µM: 30 mM", "description": "Activation of alveolar macrophages is a critical component of pulmonary inflammation. In their activated state, alveolar macrophages secrete a variety of inflammatory mediators and reactive oxygen species. In the present in vitro model of inflammation, mouse macrophages are activated by phorbol-12-myristate-13-acetate (PMA). The intensity of macrophage activation in the presence or absence of the subject compounds is determined by measuring the respiratory burst (release of reactive oxygen species) of the macrophages.\nThe RAW 264.7 cell line (American Type Culture Collection, Rockville, Md., USA, Accession No. TIE 71) is a murine monocyte/macrophage line, the cells of which show many of the differentiative functions of a macrophage. Like macrophages, the cells are capable of phagocytosis and undergo an oxidative burst (increased oxygen consumption) and production of oxygen radicals (e.g., superoxide) in response to appropriate signals. Agents that inhibit the activation of these cells in vitro so as to inhibit the respiratory burst and corresponding production of oxygen radicals associated with activation interdict a critical step in the inflammatory process.\nThe respiratory burst and corresponding production of oxygen radicals that accompany macrophage activation can be measured in a variety of ways, including chemiluminescence based on the reaction of the oxygen radicals with luminol added to the culture medium (see M. A. Trush et al., 1978, \"The Generation of Chemiluminescence by Phagocytic Cells.\", Methods in Enzymology 57: 462-494). Chemiluminescence generated from luminol in the culture medium of macrophage cell lines is recognized in the art as a marker of macrophage activation. Materials:\nCell line: RAW 264.7 (ATCC TIB-71, attachment dependent);\nCulture medium: Dulbecco's Modified Eagle's Medium (DMEM, Sigma Chemical Co. Cat. No. D-7777) with 10% Fetal Bovine Serum (FBS);\nStandard protocol for culturing cell lines: in T-75 or T-150 flasks; 37° C.; 95% air, 5% CO2; 100% humidity;\nCell line is passaged when approximately 80% confluent; with trypsin (1 mg/mL) and ethylenediamine tetraacetic acid (EDTA) (1 mM in Ca-Mg free Hank's balanced salt solution); at 1:4 to 1:5 split;\nAll procedures are performed aseptically in a Class II biological safety cabinet using standard Biosafety Level 2 (BL-2 containment procedures. In order to prevent genetic drift in stock cell lines, fresh cultures are prepared at approximately monthly intervals with cells thawed from liquid nitrogen storage. Methodology:\nAfter cell passage, count cells with a hemocytometer; Adjust cell concentration to approximately 1,000,000 cells per mL;\nSuspend cells in DMEM lacking phenol red and without FBS;\nPipette 1 mL of cell suspension into a standard luminometer cuvette (12×75 mm), commercially obtainable from Analytical Luminescence Laboratories, San Diego, Calif., USA;\nAdd luminol to final concentration of 0.2 mM;\nAdd test compound dissolved in phosphate buffered saline (PBS), or in dimethyl sulfoxide (DMSO) for final concentration levels ranging from 1 to 30 mM;\nAdd 100 nanograms of phorbol myristate acetate (PMA); and\nWait 1 minute and read photo counts (i.e., luminescence) on a Monolight 2010 luminometer available from Analytical Luminescence Laboratories, San Diego."}, "Mouse Tracheal Mucus": {"system": "Mouse Tracheal Mucus", "experiment": "Mucolytic activity in mouse tracheal mucus (phenol red secretion, aerosol)", "format": "in vivo", "settings": "mice, 25 mg/mL in saline, approximately 100 mg/kg, 5 mice, saline control zero percent", "text": "The invention provides a method of alleviating respiratory distress due to tenacious pulmonary mucous secretions in a patient suffering from such distress. In the preferred embodiment, the method is accomplished by the intermittent inhalation of an aerosol or dry powder formulation of α-tocopheryl-phosphocholine to deliver an effective mucolytic amount of α-tocopheryl-phosphocholine to the lung airways. […] The in vivo mucolytic assay is similar to that described by Chand et al. Agents and Actions, (1993) 38:165-170, incorporated herein by reference.\nThe procedure, which delivers the test compound to mice as an aerosol, is a modified assay for the evaluation of mucolytic activity in mice as described by Chand et al., previously cited.\n1. The test animals are Hsd:1CR(CD-1) mice that weigh approximately 25 g each.\n2. The test compound is diluted in normal saline to a concentration of 25 mg/mL and administered using a human De Vilbiss atomizer Model No. 15 at approximately 100 mg/kg. The control group receives saline. The nozzle is placed in the mouth of the mouse and 2 spray doses are given.\n3. After 30 minutes, phenol red dissolved as a 5% solution in saline is given IP at a dose of 0.1 mL/10 g body weight.\n4. […]\n6. The amount of phenol red secreted into the trachea is quantitated photometrically at 546 nm. […]"}, "premature fetal rabbits": {"system": "premature fetal rabbits", "experiment": "Surfactant activity in RDS model using premature fetal rabbits (dynamic lung compliance)", "format": "in vivo, rabbit", "settings": "fetal rabbits 27 days gestation, 0.2 mL endotracheal instillation, 30 minute intervals for 90 minutes", "description": "A common in vivo model for the evaluation of surfactants is lung compliance in premature fetal rabbits. This method is described in Revak et al., Am. Rev. Respir. Dir. (1986) 134:1258-1265. In this assay, the effectiveness of the subject compounds as lung surfactants is determined by evaluating dynamic lung compliance in premature fetal rabbits which are known to have difficulty initiating breathing due to low levels of natural lung surfactant.\n1. The test animals are fetal rabbits delivered prematurely at 27 days of gestation.\n2. The test solution is prepared by suspending the Formula I compound ([…]) in 6 mL of 10 mM HEPES buffer with sodium chloride (150 mM) at a pH of 7.4.\n3. 0.2 mL of test solution is administered to the fetal rabbit before breathing commenced by endotracheal instillation and then monitored for breathing. The control group receives saline.\n4. The fetal rabbit is ventilated and monitored for breathing.\n5. After 30 minutes, the rabbit is examined for quality of breathing and color. A healthy pink color is indicative of good breathing. […] The higher the value of measured compliance, the better the breathing of the test animal.\n6. Compliance values are determined at 30 minute intervals for 90 minutes."}, "[2]": {"system": "Histamine-Induced Airway Resistance", "experiment": "Histamine-induced airway resistance in anesthetized guinea pigs (total pulmonary resistance)", "format": "in vivo, guinea pig", "settings": "after induction with histamine, salbutamol 10 μg/kg or same equivalent dosage", "description": "The following is a protocol for the evaluation of anti-histamine activity in anesthetized guinea pigs.\n1. Guinea pigs of 650-1000 g are used to facilitate catheterization of the jugular vein and carotid artery. The guinea pigs are anesthetized with 35-45 mg/kg pentobarbital sodium. When or if the recordings are unstable, anesthetic additions are made during the course of the intervention. The cutdown is a ventral medial incision over the cervical area so that the trachea, jugular vein and carotid artery can be cannulated. The animals are immediately attached to a volume regulated Harvard® rodent respirator, Model 683, via a tracheostomy and the respirator is set at 60 respirations per minute and a volume of 8 ml/kg to maintain a normal arterial P-CO2 of approximately 40 mmHg. […] These two parameters are measured before and after each drug is given and at each increment in the dose response studies with each drug candidate and recorded. Total pulmonary resistance (TPR) is calculated as the difference between the expiratory pressure and inspiratory pressures with a constant volume.\nAfter the anesthetic and muscle relaxant are given, the animal is allowed to stabilize. […] The dose-related increases or decreases are quantitated against these controls to determine the percent inhibition of histamine activity. […]"}}}
{"compound": "Cc1c(C)c2c(c(C)c1OP(=O)([O-])OCC[N+](C)(C)C)CCC(C)(CCCC(C)CCCC(C)CCCC(C)C)O2", "note": "(stereo not drawn) [CPR 2001, α-tocopheryl-phosphocholine]", "values": [{"measurement": "anti-inflammatory activity with increasing concentration", "setting": "[1]; 1 to 30 mM, in contrast to α-tocopherol", "result": "anti-inflammatory activity markedly increases"}, {"measurement": "inhibition at 1000 µM", "setting": "[1]", "result": 5, "unit": "%"}, {"measurement": "inhibition at 3000 µM", "setting": "[1]", "result": 13, "unit": "%"}, {"measurement": "inhibition at 10000 µM", "setting": "[1]", "result": 31, "unit": "%"}, {"measurement": "inhibition at 30000 µM", "setting": "[1]", "result": 56, "unit": "%"}, {"measurement": "average measured percent change in mucolytic activity", "setting": "Mouse Tracheal Mucus", "result": "about 82.6%"}, {"measurement": "compliance values (dynamic lung compliance)", "setting": "premature fetal rabbits", "result": "significantly greater compliance values"}]}
{"compound": "CC(=O)N[C@@H](CS)C(=O)O", "note": "[N-acetylcysteine, reference compound]", "values": [{"measurement": "average measured percent change in mucolytic activity", "setting": "Mouse Tracheal Mucus", "result": "about 59.5%"}]}
{"compound": "CC(C)(C)NCC(O)c1ccc(O)c(CO)c1", "note": "(stereo not shown) [salbutamol]", "values": [{"measurement": "TPR course after administration", "setting": "[2]", "result": "briefly increased and then decreased below the control value"}]}
{"compound": "Cc1c(C)c2c(c(C)c1O)CCC(C)(CCCC(C)CCCC(C)CCCC(C)C)O2", "note": "(stereo not drawn) [α-tocopherol, reference compound]", "values": [{"measurement": "inhibition at 1000 µM", "setting": "[1]", "result": -3, "unit": "%"}, {"measurement": "inhibition at 3000 µM", "setting": "[1]", "result": -6, "unit": "%"}, {"measurement": "inhibition at 10000 µM", "setting": "[1]", "result": -6, "unit": "%"}, {"measurement": "inhibition at 30000 µM", "setting": "[1]", "result": -14, "unit": "%"}]}
